# Measured values: patent publication US20100233256A1, “SYNERGISTIC COMBINATIONS FOR TREATING HYPERTENSION” (LYCORED LTD., priority 2007, published 2010)
# Test system: adhesion of neutrophils to EA.hy 926 endothelial cell line
# Assay: Adhesion of neutrophils to TNFα-induced EA.hy 926 endothelial cells
# Format: cell-based
# Settings: for reduction of adhesion of neutrophils to cytokine-induced endothelial cell line: EAhy. 926; for inhibition of the adhesion: lower concentration, percent of the adhesion induced by TNFα
# Method: The applicants of the present invention have shown that lycopene, lutein and 7% Lye-O-Mato® can improve endothelial function by reducing, to similar extent (60±15%), the adhesion of neutrophils to cytokine-induced endothelial cell line (EAhy. 926). […] Lycopene 610 and oleoresin were diluted by 1:12 fold and lutein by 1:8 fold which result in ˜0.2 μM lycopene 610, ˜0.125 μM oleoresin and ˜0.6 μM lutein. The adhesion of neutrophils to EA.hy 926 cells were measured after the endothelial cells were induced by TNFα which result in increase of 60±10% in the adhesion from their combination, was calculated as percent of the adhesion induced by TNFα
Structure (SMILES),reduction of adhesion of neutrophils to cytokine-induced endothelial cell line (high concentration: lycopene 610 2-3 μM),"inhibition of the adhesion (~0.2 μM lycopene 610, FIG. 1B)",reduction of adhesion of neutrophils to cytokine-induced endothelial cell line (high concentration: lutein 4-5 μM),"inhibition of the adhesion (~0.6 μM lutein, FIG. 1A)"
CC(C)=CCC/C(C)=C/C=C/C(C)=C/C=C/C(C)=C/C=C/C=C(C)/C=C/C=C(C)/C=C/C=C(\C)CCC=C(C)C [lycopene],60±15%,40±22%,,
CC1=C[C@H](O)CC(C)(C)[C@H]1/C=C/C(C)=C/C=C/C(C)=C/C=C/C=C(C)/C=C/C=C(C)/C=C/C1=C(C)C[C@@H](O)CC1(C)C [lutein],,,60±15%,56±15%
